Measured values from US7998981B2, “Aminoaryl sulphonamide derivatives as functional 5-HT6 ligands” (Suven Life Sciences Limited, priority 2005, dated 2011).

Target: T1, Human 5-HT6 Receptor (Homo sapiens, UniProt P50406)
T1 construct: host or cells: HEK293
Experiment: Nova Screen binding assay for human 5-HT6 receptor ([3H]LSD radioligand binding)
Details: 100 nM; human recombinant receptor expressed in HEK293 cells; [3H]LSD 1.5 nM
Procedure: Nova Screen Binding Assay for Human 5-HT6 Receptor
Pharmacological data Compounds can be tested according to the following the procedures.
Receptor source: Human recombinant expressed in HEK293 cells
Radioligand: [^3H]LSD (60-80 Ci/mmol)
Final ligand concentration—[1.5 nM]
Non-specific determinant: Methiothepin mesylate—[0.1 μM]
Reference compound: Methiothepin mesylate
Positive control: Methiothepin mesylate
Incubation conditions: Reactions were carried out in 50 mM TRIS-HCl (pH 7.4) containing 10 mM MgCl2, 0.5 mM EDTA for 60 minutes at 37° C. The reaction was terminated by rapid vacuum filtration onto glass fiber filters. Radioactivity trapped onto the filters was determined and compared to control values in order to ascertain any interactions of test compound(s) with the cloned serotonin -5HT6 binding site.
Literature Reference: Monsma F. J. Jr., et al., Molecular Cloning and Expression of Novel Serotonin Receptor with High Affinity for Tricyclic Psychotropic Drugs. Mol. Pharmacol. (43): 320-327 (1993).

T1 sequence (P50406 whole entry): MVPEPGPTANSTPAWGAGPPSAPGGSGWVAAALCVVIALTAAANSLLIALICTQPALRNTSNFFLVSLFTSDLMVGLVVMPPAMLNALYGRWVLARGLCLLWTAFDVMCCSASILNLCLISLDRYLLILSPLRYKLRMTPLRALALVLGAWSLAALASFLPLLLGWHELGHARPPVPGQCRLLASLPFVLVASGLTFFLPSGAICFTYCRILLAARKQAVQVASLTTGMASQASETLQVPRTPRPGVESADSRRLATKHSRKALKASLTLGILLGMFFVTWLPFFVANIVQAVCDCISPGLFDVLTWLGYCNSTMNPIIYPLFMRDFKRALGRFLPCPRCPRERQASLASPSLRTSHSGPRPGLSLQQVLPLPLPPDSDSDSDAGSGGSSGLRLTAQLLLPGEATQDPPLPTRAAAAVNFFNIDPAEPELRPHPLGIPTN

| SMILES | % Inhibition at 100 nM, radioligand binding data at 5ht6R (h) |
| --- | --- |
| CN1CCC(Nc2cc(S(=O)(=O)n3ccc4ccccc43)ccc2F)CC1 [Example 25, 1-[3-(1-Methylpiperidin-4-yl)amino-4-Fluoro]benzenesulfonylindole] | 99.33% |

Same assay, conditions: 100 nM; human recombinant receptor expressed in HEK293 cells; [3H]LSD 1.5 nM; read-out: % Inhibition at 100 nM, radioligand binding data at 5ht6R (h)

| SMILES | inhibition at 0.1 µM |
| --- | --- |
| CN1CCC(Nc2cccc(S(=O)(=O)n3ccc4ccccc43)c2)CC1 [Example 1, 1-[3-(1-Methylpiperidin-4-yl)amino]benzenesulfonyl-1H-indole] | 96.8% |
| COc1ccc2c(ccn2S(=O)(=O)c2cccc(NC3CCN(C)CC3)c2)c1 [Example 2, 1-[3-(1-Methylpiperidin-4-yl)amino]benzenesulfonyl-5-methoxyindole] | 82.2% |
| COc1ccc2c(ccn2S(=O)(=O)c2ccc(C)c(NC3CCN(C)CC3)c2)c1 [Example 10, 1-[3-(1-Methylpiperidin-4-yl)amino-4-methyl]benzenesulfonyl-5-methoxyindole] | 85.3% |
| COc1ccc(S(=O)(=O)n2ccc3ccccc32)cc1NC1CCN(C)CC1 [Example 17, 1-[3-(1-Methylpiperidin-4-yl)amino-4-methoxy]benzenesulfonyl-1H-indole] | 101% |

Other lines, results leading:

| inhibition at 0.1 µM | SMILES |
| --- | --- |
| 92.2% | CN1CCC(Nc2cccc(S(=O)(=O)n3ccc4cc(Br)ccc43)c2)CC1 [Example 4, 1-[3-(1-Methylpiperidin-4-yl)amino]benzenesulfonyl-5-bromoindole] |
| 93.2% | CN1CCC(Nc2cccc(S(=O)(=O)n3ccc4cc(F)ccc43)c2)CC1 [Example 6, 1-[3-(1-Methylpiperidin-4-yl)amino]benzenesulfonyl-5-fluoroindole] |

Same assay, conditions: human recombinant receptor expressed in HEK293 cells; [3H]LSD 1.5 nM; 60 minutes at 37° C.; read-out: Ki, radioligand binding data at 5ht6R (h)

| SMILES | Ki |
| --- | --- |
| CN1CCC(Nc2cccc(S(=O)(=O)n3ccc4ccccc43)c2)CC1 [Example 1, 1-[3-(1-Methylpiperidin-4-yl)amino]benzenesulfonyl-1H-indole] | 3.19 nM |
| COc1ccc2c(ccn2S(=O)(=O)c2cccc(NC3CCN(C)CC3)c2)c1 [Example 2, 1-[3-(1-Methylpiperidin-4-yl)amino]benzenesulfonyl-5-methoxyindole] | 12.5 nM |
| COc1ccc2c(ccn2S(=O)(=O)c2ccc(C)c(NC3CCN(C)CC3)c2)c1 [Example 10, 1-[3-(1-Methylpiperidin-4-yl)amino-4-methyl]benzenesulfonyl-5-methoxyindole] | 20.9 nM |
| COc1ccc(S(=O)(=O)n2ccc3ccccc32)cc1NC1CCN(C)CC1 [Example 17, 1-[3-(1-Methylpiperidin-4-yl)amino-4-methoxy]benzenesulfonyl-1H-indole] | 1.29 nM |

Continued, values first:

| Ki | SMILES |
| --- | --- |
| 10.3 nM | CN1CCC(Nc2cccc(S(=O)(=O)n3ccc4cc(Br)ccc43)c2)CC1 [Example 4, 1-[3-(1-Methylpiperidin-4-yl)amino]benzenesulfonyl-5-bromoindole] |
| 7 nM | CN1CCC(Nc2cccc(S(=O)(=O)n3ccc4cc(F)ccc43)c2)CC1 [Example 6, 1-[3-(1-Methylpiperidin-4-yl)amino]benzenesulfonyl-5-fluoroindole] |

System: Adult male Wistar rats
Experiment: Passive avoidance (single-trial, step through, light-dark paradigm)
Type: in vivo, rat
Details: 10 mg/Kg oral dose; recall 24 h, 72 h and 7 day post-training (FIG. 2)
From the text: Passive Avoidance Apparatus Animals were trained in a single-trial, step through, light-dark passive avoidance paradigm. The training apparatus consisted of a chamber 300 mm in length, 260 mm wide, and 270 mm in height, constructed to established designs. The front and top were transparent, allowing the experimenter to observe the behavior of the animal inside the apparatus. The chamber was divided into two compartments, separated by a central shutter that contained a small opening 50 mm wide and 75 mm high set close to the front of the chamber. The smaller of the compartments measured […] in width and contained a low-power (6V) illumination source. The larger compartment measured 210 mm in width and was not illuminated. […] A resistance range of […] was calculated for a control group of rats and the apparatus was calibrated accordingly. […] Latency to enter the dark chamber was recorded (usually <20 s), and having completely entered the dark compartment an inescapable foot shock of 0.75 mA for 3 s was administered to the animal. […] Recall of this inhibitory stimulus was evaluated 24 h, 72 h and on 7 day post-training by returning the animal into the light chamber and recording their latency to enter the dark chamber, a criterion time of 300 s was employed.

| SMILES | latency to reach the dark zone |
| --- | --- |
| CN1CCC(Nc2cccc(S(=O)(=O)n3ccc4cc(F)ccc43)c2)CC1 [Example 6, 1-[3-(1-Methylpiperidin-4-yl)amino]benzenesulfonyl-5-fluoroindole] | significant increase in latency |

System: Male Wistar rats
Experiment: Object recognition task model
Type: in vivo, rat
Details: orally or i.p. one hour before T1 and T2; T2 24 hour after T1; example 6 at 10 mg/Kg orally (FIG. 1)
Procedure: Object Recognition Task Model
The cognition-enhancing properties of compounds of this invention were estimated using a model of animal cognition: the object recognition task model.
Male wistar rats (230-280 g) obtained from N I.N. (National Institute of Nutrition, Hyderabad, India) were used as an experimental animal. Four animals were housed in each cage. Animals were kept on 20% food deprivation before one day and given water ad libitum throughout the experiment, and maintained on a 12 h light/dark cycle. Also the rats were habituated to individual arenas for 1 hour in absence of any objects.
One group of 12 rats received vehicle (1 mL/Kg) orally and another set of animals received compound of the formula (I) either orally or i.p., before one hour of the familiar (T1) and choice trial (T2). The experiment was carried out in a 50×50×50 Cm open field made up of acrylic. In the familiarization phase, (T1), the rats were placed individually in the open field for 3 min., in which two identical objects (plastic bottles, 12.5 Cm height×5.5 Cm diameter) covered in yellow masking tape alone (a1 and a2) were positioned in two adjacent corners, 10 Cm. from the walls. After 24 hour of the (T1) trial for long-term memory test, the same rats were placed in the same arena as they were placed in T1 trial. […]

| SMILES | novel object recognition (exploration time with novel object, discrimination index) |
| --- | --- |
| CN1CCC(Nc2cccc(S(=O)(=O)n3ccc4cc(F)ccc43)c2)CC1 [Example 6, 1-[3-(1-Methylpiperidin-4-yl)amino]benzenesulfonyl-5-fluoroindole] | positive effects |
